Experimental findings from US12202841B2, “Therapeutic agents for enhancing epithelial and/or endothelial barrier function” (ARTUS THERAPEUTICS, INC., priority 2022, dated 2025) are described below.

Data set [1] concerns AhR signaling pathway. Kind of data set: Luciferase AhR-reporter gene (DRE) assay in human hepatic cells. The data set is classed as cell-based. The settings on record: FIG. 7A. The procedure:
(§1) Step 2: Selected compounds from step 1 were tested at a range of concentrations for activation of Cyp1A1 mRNA levels using qRT-PCR, for activation of Cyp1A1 enzymatic activity (ethoxyresorufin-O-deethylase (EROD) assay), or activation of an AhR-reporter gene driven by a so-called dioxin-response element (DRE) using commercially available kits. Activation of Cyp1A1 mRNA levels, activation of Cyp1A1 enzymatic activity, or activation of an AhR reporter gene construct driven by a DRE is generally considered to be indicative of a compound's ability to function as an AhR ligand. When activated by a ligand, cytosolic AhR translocates to the nucleus and dimerizes with the AhR nuclear translocator protein ARNT. The AhR/ARNT complex then binds to DREs to activate gene transcription.
(§2) In these experiments, human hepatic cells (FIG. 7A) or human intestinal epithelial cells (FIG. 7B) containing a luciferase AhR-reporter gene construct driven by a so-called dioxin-response element (DRE) were treated with various concentrations of ARTX-413 or with various concentrations of the well-studied AhR ligand β-naphthoflavone (BNF) using commercially available kits. Activation of Cyp1A1 mRNA levels, activation of Cyp1A1 enzymatic activity, or activation of an AhR reporter gene construct driven by a DRE is generally considered to be indicative of a compound's ability to function as an AhR ligand.
For orientation: Reporter assays use an easily measured gene product as a stand-in for the process of interest.

In a further data set the test system is Salmonella strains. Kind of data set: Ames test. To be noted: concentrations as high as 1.0 mg/mL. The protocol: (§3) Step 4: Toxicity studies, including hERG and Ames tests, are conducted on compounds.
However, potential genotoxicity of ARTX-86 is consistent with its planar structure, which may allow ARTX-86 to intercalate into the DNA double helix. It's possible that reactive metabolites of ARTX-86 are being formed by the S9 fraction and the ability of ARTX-86 to intercalate into the DNA helix delivers the radicals or other toxic metabolites directly to the DNA.
For orientation: The Ames test uses bacterial strains that need an amino acid and regain growth without it when mutated back.

The nature of data set [2]: In vitro safety pharmacology assays.
The next data set addresses hERG (Homo sapiens, UniProt Q12809). Nature of the data set: hERG assay. The settings on record: FIG. 8. The procedure: as §3
In general terms: Block of hERG is tested as a sign of cardiac risk.

Data set [3] relates to murine DSS model of ulcerative colitis. Nature of the data set: Murine DSS model of ulcerative colitis (acute). The settings on record: 20 mg/kg oral gavage on days 4, 6, 8, 10. The data set is classed as in vivo, mouse. The protocol:
FIGS. 6A-F illustrate efficacy of ARTX-339, ARTX-405A, ARTX-413, and ARTX-425P1 in the murine DSS model of ulcerative colitis. A. C57BL/6 mice (7-8-week old mice) were supplied with 2.5% DSS in their drinking water for 7 days. Starting on day 4 post DSS treatment, mice were dosed once every other day with 100 μL vehicle (0.25% sodium carboxymethylcellulose used in the formulation of ARTX compounds), or 100 μL ARTX-339, ARTX-405A, ARTX-413, or ARTX-425P1 at 20 mg/kg body weight by oral gavage on days 4, 6, 8, and 10. Mice were euthanized on day 12. FITC dextran was administered to the mice via oral gavage 4 hours preceding euthanization. Following euthanization, colons were dissected, and their length measured. B. Measurements of colon length. C. Photographs of dissected colons. D. Measurement of FITC-dextran in serum following euthanization. […] Higher levels of serum FITC-dextran following DSS-treatment is an indication of a loss of barrier function. E. Body weight was measured every other day starting at day 0 with the initiation of DSS treatment. F. Disease activity index (DAI) scores were assigned every other day. The higher the DAI score, the worse the symptoms. **** indicates p<0.0001; *** indicates p<0.001; ** indicates=p<0.01.
A murine dextran sodium sulfate (DSS)-elicited model of ulcerative colitis was utilized to measure the efficacy of compounds in vivo. Oral administration of DSS in drinking water, a chemical colitogen with anticoagulant properties, leads to disruption of gut epithelium causing enhanced gut permeability, inflammation, and severe damage of gut barrier function^71,72. The rationale for using the murine DSS^71,72 model of UC is that it is a well-established gut epithelial barrier disrupting model that can be used to model both acute and chronic UC^70,71.
Starting on day 4 post DSS treatment, mice were dosed once every other day with 100 μL vehicle (0.25% sodium carboxymethylcellulose used in the formulation of ARTX compounds), or 100 μL ARTX-339, ARTX-405A, ARTX-413, or ARTX-425P1 at 20 mg/kg body weight by oral gavage on days 4, 6, 8, and 10. Mice were euthanized on day 12. FITC dextran was administered to the mice via oral gavage 4 hours prior to euthanization. Following euthanization, colons were dissected, and their lengths were measured.

For data set [4], the system named is AhR signaling pathway. Nature of the data set: Luciferase AhR-reporter gene (DRE) assay in human intestinal epithelial cells. The data set is classed as cell-based. To be noted: FIG. 7B. The protocol:
as §1, §2

hERG, sequence (Q12809 whole entry): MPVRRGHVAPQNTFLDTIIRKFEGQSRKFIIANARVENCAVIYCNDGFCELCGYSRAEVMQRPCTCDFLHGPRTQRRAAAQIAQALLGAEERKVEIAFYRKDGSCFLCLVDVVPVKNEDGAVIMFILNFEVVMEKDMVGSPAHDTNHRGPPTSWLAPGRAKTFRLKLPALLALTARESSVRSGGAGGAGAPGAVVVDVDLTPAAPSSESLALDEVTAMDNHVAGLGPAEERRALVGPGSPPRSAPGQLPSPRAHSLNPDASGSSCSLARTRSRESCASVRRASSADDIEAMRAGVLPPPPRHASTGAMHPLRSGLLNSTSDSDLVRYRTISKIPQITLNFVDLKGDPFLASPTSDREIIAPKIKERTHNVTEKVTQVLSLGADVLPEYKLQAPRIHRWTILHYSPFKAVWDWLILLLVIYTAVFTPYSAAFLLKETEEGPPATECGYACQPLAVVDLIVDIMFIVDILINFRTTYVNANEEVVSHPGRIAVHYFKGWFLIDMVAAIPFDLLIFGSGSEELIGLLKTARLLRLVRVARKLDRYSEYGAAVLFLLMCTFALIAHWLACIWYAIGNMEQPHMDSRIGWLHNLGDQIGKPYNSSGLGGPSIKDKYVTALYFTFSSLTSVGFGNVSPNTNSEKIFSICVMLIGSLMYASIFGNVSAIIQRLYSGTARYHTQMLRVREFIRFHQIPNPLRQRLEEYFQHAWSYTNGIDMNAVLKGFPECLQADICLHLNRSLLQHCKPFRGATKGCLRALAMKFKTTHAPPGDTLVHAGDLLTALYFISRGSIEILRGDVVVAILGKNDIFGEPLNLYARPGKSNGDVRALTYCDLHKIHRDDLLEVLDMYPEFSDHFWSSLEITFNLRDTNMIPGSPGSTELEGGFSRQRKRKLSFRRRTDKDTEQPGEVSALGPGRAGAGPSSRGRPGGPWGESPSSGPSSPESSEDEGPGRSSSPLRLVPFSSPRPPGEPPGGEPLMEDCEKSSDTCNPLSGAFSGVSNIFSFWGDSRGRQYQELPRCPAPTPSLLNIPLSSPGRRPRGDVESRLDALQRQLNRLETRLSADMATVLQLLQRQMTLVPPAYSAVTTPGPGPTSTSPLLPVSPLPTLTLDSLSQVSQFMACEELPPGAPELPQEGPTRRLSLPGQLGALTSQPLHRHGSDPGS

Take `Oc1ncc2c(n1)OCc1cc(F)ccc1-2` [ARTX-413, 8-fluoro-6H-isochromeno[3,4-d]pyrimidin-3-ol]: the “activation of AhR reporter gene” value with AhR signaling pathway [1] and in the data set with AhR signaling pathway [4] was “activate the AhR signaling pathway” in each case. Further, the Ames test result in the data set on Salmonella strains is on record as “non-genotoxic”. Besides, in data set [2], the off-target effects result is on record as “did not identify any significant off-target effects”. Further, the “hERG inhibition / risk of cardiotoxicity” value on hERG is reported as “low risk of cardiotoxicity”. Also, in data set [3] (2.5% DSS, C57BL/6 mice), the “efficacy in the murine DSS model of colitis” value is on record as “exhibited efficacy”. The “DSS-elicited body weight loss” value in data set [3] (FIG. 6E) is “highly effective”. Besides, the “disease activity index (DAI)” value in data set [3] (FIG. 6F) is listed as “highly effective”. In data set [3] (day 12, FIG. 6B, 6C), the colon length result is “highly effective”.
